Assay results taken from ChEMBL document CHEMBL6120946, “From Hit to Lead: Discovery of First-In-Class Furanone Glycoside D228 Derived from Chimonanthus salicifolius for the Treatment of Inflammatory Bowel Disease” (J Med Chem, 2024).
Calls of active or inactive are those of the source. The rule behind the calls is not given here.

Assays:
[1] = Cytotoxicity against mouse Splenocyte by MTT assay; type: toxicity, cell-based; details: splenocytes
[2] = system: B-cell line; test: Immunosuppressive activity in mouse B-lymphocyte assessed as reduction in LPS-induced cell proliferation incubated for 48 hrs; type: functional, cell-based
[3] = Selectivity ratio of CC50 for cytotoxicity against mouse Splenocyte to IC50 for immunosuppressive activity in mouse B-lymphocyte; type: toxicity; details: splenocytes (CC50) and B-lymphocytes (IC50)
[4] = Immunosuppressive activity in mouse T-lymphocyte assessed as reduction in concanavalin A-induced cell proliferation incubated for 48 hrs; type: functional, cell-based
[5] = Selectivity ratio of CC50 for cytotoxicity against mouse Splenocyte to IC50 for immunosuppressive activity in mouse T-lymphocyte; type: toxicity; details: splenocytes (CC50) and T-lymphocytes (IC50)
[6] = system: Mus musculus; test: Antiinflammatory activity in DSS-induced male C57BL/6 mouse model of inflammatory bowel disease assessed as recovery from body weight loss at 40 mg/kg/day, po measured after 7 days; type: functional, organism-based; details: time 7.0 day
[7] = system: Mus musculus; test: Antiinflammatory activity in DSS-induced male C57BL/6 mouse model of inflammatory bowel disease assessed as recovery from body weight loss at 40 mg/kg/day, po measured after 7 days relative to control; type: functional; details: time 7 day
[8] = system: Mus musculus; test: Antiinflammatory activity in DSS-induced male C57BL/6 mouse model of inflammatory bowel disease assessed as recovery in colon length at 40 mg/kg/day, po measured after 7 days relative to control; type: functional; details: time 7 day
[9] = Toxicity in female BALB/c mouse assessed as effect on ALP level at 0.5 g/Kg administered daily and measured after 5 weeks; details: in vivo, 500 mg/kg, 840 h
[10] = Toxicity in female BALB/c mouse assessed as effect on CREA level at 0.5 g/Kg administered daily and measured after 5 weeks; details: in vivo, 500 mg/kg, 840 h
[11] = Toxicity in female BALB/c mouse assessed as effect on GLU level at 0.5 g/Kg administered daily and measured after 5 weeks; details: in vivo, 500 mg/kg, 840 h
[12] = Toxicity in female BALB/c mouse assessed as effect on CK level at 0.5 g/Kg administered daily and measured after 5 weeks; details: in vivo, 500 mg/kg, 840 h
[13] = Toxicity in female BALB/c mouse assessed as effect on Na inorganic salt index at 0.5 g/Kg administered daily and measured after 5 weeks; details: in vivo, 500 mg/kg, 840 h
[14] = Toxicity in female BALB/c mouse assessed as effect on Cl inorganic salt index at 0.5 g/Kg administered daily and measured after 5 weeks; details: in vivo, 500 mg/kg, 840 h
[15] = Toxicity in male C57BL/6 mouse assessed as effect on ALP level at 0.5 g/Kg administered daily and measured after 5 weeks; details: in vivo, 500 mg/kg, 840 h
[16] = Toxicity in male C57BL/6 mouse assessed as effect on CREA level at 0.5 g/Kg administered daily and measured after 5 weeks; details: in vivo, 500 mg/kg, 840 h
[17] = Toxicity in male C57BL/6 mouse assessed as effect on GLU level at 0.5 g/Kg administered daily and measured after 5 weeks; details: in vivo, 500 mg/kg, 840 h
[18] = Toxicity in male C57BL/6 mouse assessed as effect on CK level at 0.5 g/Kg administered daily and measured after 5 weeks; details: in vivo, 500 mg/kg, 840 h
[19] = Toxicity in male C57BL/6 mouse assessed as effect on Na inorganic salt index at 0.5 g/Kg administered daily and measured after 5 weeks; details: in vivo, 500 mg/kg, 840 h
[20] = Toxicity in male C57BL/6 mouse assessed as effect on Cl inorganic salt index at 0.5 g/Kg administered daily and measured after 5 weeks; details: in vivo, 500 mg/kg, 840 h
[21] = system: Mus musculus; test: Antiinflammatory activity in DSS-induced male C57BL/6 mouse model of inflammatory bowel disease assessed as decrease in p38 phosphorylation level at 50 to 100 microM/Kg by Western blot analysis; type: functional, organism-based; details: dose 50-100 µM/Kg
[22] = system: Mus musculus; test: Antiinflammatory activity in DSS-induced male C57BL/6 mouse model of inflammatory bowel disease assessed as downregulation of TRAF6 expression at 50 to 100 microM/Kg by Western blot analysis; type: functional, organism-based; details: dose 50-100 µM/Kg
[23] = system: Mus musculus; test: Antiinflammatory activity in DSS-induced male C57BL/6 mouse model of inflammatory bowel disease assessed as downregulation of MyD88 expression at 50 to 100 microM/Kg by Western blot analysis; type: functional, organism-based; details: dose 50-100 µM/Kg
[24] = system: Mus musculus; test: Antiinflammatory activity in DSS-induced male C57BL/6 mouse model assessed as effect on JNK phosphorylation level at 50 to 100 microM/Kg by Western blot analysis; type: functional, organism-based; details: dose 50-100 µM/Kg
[25] = system: Mus musculus; test: Antiinflammatory activity in DSS-induced male C57BL/6 mouse model assessed as inhibition of TNF-alpha level in colon at 50 to 100 microM/Kg; type: functional, organism-based; details: dose 50-100 µM/Kg
[26] = system: Mus musculus; test: Antiinflammatory activity in DSS-induced male C57BL/6 mouse model assessed as inhibition of IL-6 level in colon at 50 to 100 microM/Kg; type: functional, organism-based; details: dose 50-100 µM/Kg
[27] = system: Mus musculus; test: Antiinflammatory activity in DSS-induced male C57BL/6 mouse model assessed as inhibition of IL-17A level in colon at 50 to 100 microM/Kg; type: functional, organism-based; details: dose 50-100 µM/Kg
[28] = system: Mus musculus; test: Antiinflammatory activity in DSS-induced male C57BL/6 mouse model assessed as inhibition of IL-22 level in colon at 50 to 100 microM/Kg; type: functional, organism-based; details: dose 50-100 µM/Kg
[29] = system: Mus musculus; test: Antiinflammatory activity in DSS-induced male C57BL/6 mouse model assessed as increase in IL-10 level in colon at 50 to 100 microM/Kg; type: functional, organism-based; details: dose 50-100 µM/Kg
[30] = system: Mus musculus; test: Antiinflammatory activity in DSS-induced male C57BL/6 mouse model of inflammatory bowel disease assessed as amelioration of structural loss of colon at 50 to 100 microM/Kg by H and E staining based analysis; type: functional, organism-based; details: dose 50-100 µM/Kg
[31] = system: Mus musculus; test: Antiinflammatory activity in DSS-induced male C57BL/6 mouse model of inflammatory bowel disease assessed as amelioration of crypts disruption at 50 to 100 microM/Kg by H and E staining based analysis; type: functional, organism-based; details: dose 50-100 µM/Kg
[32] = system: Mus musculus; test: Antiinflammatory activity in DSS-induced male C57BL/6 mouse model of inflammatory bowel disease assessed as amelioration of infiltration of inflammatory cells at 50 to 100 microM/Kg by H and E staining based analysis; type: functional, organism-based; details: dose 50-100 µM/Kg
[33] = system: Mus musculus; test: Antiinflammatory activity in DSS-induced male C57BL/6 mouse model of inflammatory bowel disease assessed as upregulation of ZO-1 expression in colon at 50 to 100 microM/Kg by immunohistochemical analysis; type: functional, organism-based; details: dose 50-100 µM/Kg
[34] = system: Mus musculus; test: Antiinflammatory activity in DSS-induced male C57BL/6 mouse model of inflammatory bowel disease assessed as inhibition of MPO expression at 50 to 100 microM/Kg, po by immunohistochemical analysis; type: functional, organism-based; details: dose 50-100 µM/Kg
[35] = system: Mus musculus; test: Antiinflammatory activity in male C57BL/6 mouse model of inflammatory bowel disease assessed as recovery of DSS-induced body weight loss at 40 mg/kg/day, po via gavage measured after 14 days relative to control; type: functional; details: time 14 day
[36] = system: Mus musculus; test: Antiinflammatory activity in DSS-induced male C57BL/6 mouse model of inflammatory bowel disease assessed as restoration of colon length at 40 mg/kg/day, po via gavage measured after 14 days relative to control; type: functional; details: time 14 day

Work on `CC(=O)OC[C@H]1O[C@@H](OC2=C(C)OC(=C3CCN(C(C)=O)CC3)C2=O)[C@H](OC(C)=O)[C@@H](OC(C)=O)[C@@H]1OC(C)=O` yielded a CC50 [1] of 38.7 µM, an IC50 [2] of 24.9 µM and a selectivity ratio [3] of 1.74. For the same compound, the IC50 [4] was 48.3 µM, the selectivity ratio [5] was 1.23 and the Activity [6] was “Active”. The Activity [7] was 13.9% and the Activity [8] was 26.7%.
For `CC(=O)OC[C@H]1O[C@@H](OC2=C(C)OC(=C3CCOCC3)C2=O)[C@H](OC(C)=O)[C@@H](OC(C)=O)[C@@H]1OC(C)=O`, the CC50 [1] was 71.9 µM, the IC50 [2] was 26.4 µM and the selectivity ratio [3] was 3.11. For the same compound, the IC50 [4] was 43.6 µM, the selectivity ratio [5] was 1.87 and the Activity [6] was “Active”. It also gave an Activity [7] of 26.3% and an Activity [8] of 30.5%.
Compound `CC(C)=C1OC(C)=C(O)C1=O` has a CC50 [1] of 110 µM, an IC50 [2] of 23.1 µM and a selectivity ratio [3] of 4.77. For the same compound, the IC50 [4] was 62.1 µM, the selectivity ratio [5] was 1.82 and the Activity [9] was “Non-toxic”. For the same compound, the Activity [10] was “Non-toxic”, the Activity [11] was “Non-toxic” and the Activity [12] was “Non-toxic”. For the same compound, the Activity [13] was “Non-toxic”, the Activity [14] was “Non-toxic” and the Activity [15] was “Non-toxic”. For the same compound, the Activity [16] was “Non-toxic”, the Activity [17] was “Non-toxic” and the Activity [18] was “Non-toxic”. The Activity [19] was “Non-toxic”, the Activity [20] was “Non-toxic” and the Activity [21] was “Active”. For the same compound, the Activity [22] was “Active”, the Activity [23] was “Active” and the Activity [24] was “inactive”. The Activity [25] was “Active”, the Activity [26] was “Active” and the Activity [27] was “Active”. For the same compound, the Activity [28] was “Active”, the Activity [29] was “Active” and the Activity [30] was “Active”. For the same compound, the Activity [31] was “Active”, the Activity [32] was “Active” and the Activity [33] was “Active”. The Activity [34] was “Active”.
`CCOC(=O)OC[C@H]1O[C@@H](OC2=C(C)OC(=C(C)C)C2=O)[C@H](O)[C@@H](O)[C@@H]1O` gave a CC50 [1] of 182 µM, an IC50 [2] greater than 100 µM and an IC50 [4] greater than 100 µM. The Activity [6] was “Active”, the Activity [7] was 47.6% and the Activity [8] was 13.3%.
Work on `CC(C)=C1OC(C)=C(O[C@@H]2O[C@H](COC(=O)C(C)(C)C)[C@@H](OC(=O)C(C)(C)C)[C@H](OC(=O)C(C)(C)C)[C@H]2OC(=O)C(C)(C)C)C1=O` yielded a CC50 [1] greater than 200 µM, an IC50 [2] greater than 100 µM and an IC50 [4] greater than 100 µM. It also gave an Activity [35] of 41.6% and an Activity [36] of 3.2%.
For `CC(=O)OC[C@H]1O[C@@H](OC2=C(C)OC(=C3CCCC3)C2=O)[C@H](OC(C)=O)[C@@H](OC(C)=O)[C@@H]1OC(C)=O`, the CC50 [1] was 40 µM, the IC50 [2] was 16.3 µM and the selectivity ratio [3] was 2.73. The IC50 [4] was 23.4 µM, the selectivity ratio [5] was 1.83 and the Activity [6] was “Active”. For the same compound, the Activity [7] was 62.5% and the Activity [8] was 45.2%.
Work on `CC1=C(O)C(=O)C(=C2CCCCC2)O1` yielded an IC50 [2] greater than 100 µM and an IC50 [4] greater than 100 µM.
`CC(=O)OC[C@H]1O[C@@H](OC2=C(C)OC(=C(C)C)C2=O)[C@H](OC(C)=O)[C@@H](OC(C)=O)[C@H]1OC(C)=O` gave a CC50 [1] of 183 µM, an IC50 [2] greater than 100 µM and an IC50 [4] of 201 µM. It also gave a selectivity ratio [5] of 1.06, an Activity [35] of 44.8% and an Activity [36] of 25.4%.
